Common to all, as to format: biochemical
Assay [1] deals with T1, EGFR-kinase domain (Homo sapiens, UniProt P00533).
T1 construct: 0.5 μg EGFR-kinase domain/well
As to the kind of experiment: In vitro inhibition of EGFR (Flash Plate assay). The conditions noted are these: full dose response 1.10^−6M to 1.10^−10M, read-out: C12 EGFR flash Score. The procedure: The in vitro inhibition of EGFR was assessed using either the Flash Plate technology or the glass-fiber filter technology as described by Davies, S. P. et al., Biochem J. (2000), 351; p. 95-105. The Flash Plate technology is generally described by B. A. Brown et al. in High Throughput Screening (1997), p. 317-328. Editor(s): Devlin, John P. Publisher: Dekker, New York, N.Y.
In the Flash Plate EGFR kinase reaction assay, a kinase substrate consisting of biotinylated poly(L-glutamic acid-L-tyrosine) (poly(GT)biotin), is incubated with the aforementioned protein in the presence of (^33P) radiolabeled ATP. (^33P) phosphorylation of the substrate is subsequently measured as light energy emitted using a streptavidin-coated Flash Plate (PerkinElmer Life Sciences) by trapping and quantifying the binding of the biotin tagged and radiolabeled substrate.
The EGFR kinase reaction is performed at 30° C. for 60 minutes in a 96-well microtiter FlashPlate (PerkinElmer Life Sciences). For each of the tested compounds a full dose response 1.10^−6M to 1.10^−10M has been performed. IRESSA® and Tarceva™ (erlotinib) were used as reference compounds. The 100 μl reaction volume contains 54.5 mM TrisHCl pH 8.0, 10 mM MgCl2, 100 μM Na3VO4, 5.0 μM unlabeled ATP, 1 mM DTT, 0.009% BSA, 0.8 μCi AT^33P, 0.35 μg/well poly(GT)biotin and 0.5 μg EGFR-kinase domain/well.
The reaction is stopped by aspirating the reaction mixture and washing the plate 3× with 200 μl wash/stop buffer (PBS+100 mM EDTA). After the final wash step 200 μl of wash/stop buffer was added to each well and the amount of phosphorylated (^33P) Poly(GT)biotin determined by counting (30 sec/well) in a microtiterplate scintillation counter.

Assay [2] concerns the target cSRC (h) (Homo sapiens, UniProt P12931). As to the kind of experiment: cSRC human kinase assay (glass-fiber filter). The settings on record: test concentration of 10^−6M; read-out: C3 score (inhibition of cSRC human). The procedure: (§1) The in vitro inhibition of a panel of kinases was assessed using either the glass-fiber filter technology as described by Davies, S. P. et al., Biochem J. […] In the glass-fiber filter technology the activity of the kinase of interest is measured using an appropriate substrate that is incubated with the aforementioned kinase protein in the presence of (^33P) radiolabeled ATP. (^33P) Phosphorylation of the substrate is subsequently measured as radioactivity bound on a glass fiber-filter. All kinases are pre-diluted to a 10× working concentration prior to addition into the assay. The composition of the dilution buffer for each kinase is detailed below. […] The reaction is initiated by the addition of the MgATP mix. […] 10 μl of the reaction is then spotted onto a P30 filtermat and washed three times for 5 minutes in 75 mM phosphoric acid and once in methanol prior to drying and scintillation counting.

The target in assay [3] is Flt3 (h) (Homo sapiens, UniProt P36888). As to the kind of experiment: Flt3 human kinase assay (glass-fiber filter). The settings on record: test concentration of 10^−6M; read-out: C6 score (inhibition of Flt3 human). The procedure:
(§2) The in vitro inhibition of a panel of kinases was assessed using either the glass-fiber filter technology as described by Davies, S. P. et al., Biochem J. (2000), 351; p. 95-105.
(§3) In the glass-fiber filter technology the activity of the kinase of interest is measured using an appropriate substrate that is incubated with the aforementioned kinase protein in the presence of (^33P) radiolabeled ATP. (^33P) Phosphorylation of the substrate is subsequently measured as radioactivity bound on a glass fiber-filter.
(§4) All kinases are pre-diluted to a 10× working concentration prior to addition into the assay. The composition of the dilution buffer for each kinase is detailed below.
In a final reaction volume of 25 μl, Flt3 (h) (5-10 mU) is incubated with 8 mM MOPS pH 7.0, 0.2 mM EDTA, 50 μM […], 10 mM MgAcetate and [γ-^33P-ATP] (specific activity approx. 500 cpm/pmol, concentration as required). The reaction is initiated by the addition of the MgATP mix. After incubation for 40 minutes at room temperature, the reaction is stopped by the addition of 5 μl of a 3% phosphoric acid solution. 10 μl of the reaction is then spotted onto a P30 filtermat and washed three times for 5 minutes in 75 mM phosphoric acid and once in methanol prior to drying and scintillation counting.

The target in assay [4] is Fms (h) (Homo sapiens, UniProt P07333). As to the kind of experiment: Fms human kinase assay (glass-fiber filter). The settings on record: test concentration of 10^−6M; read-out: C7 score (inhibition of Fms human). The method, then:
as §2, §3, §4
In a final reaction volume of 25 μl, Fms (h) (5-10 mU) is incubated with 8 mM MOPS pH 7.0, 0.2 mM EDTA, 250 μM […], 10 mM MgAcetate and [γ-^33P-ATP] (specific activity approx. 500 cpm/pmol, concentration as required). The reaction is initiated by the addition of the MgATP mix. After incubation for 40 minutes at room temperature, the reaction is stopped by the addition of 5 μl of a 3% phosphoric acid solution. 10 μl of the reaction is then spotted onto a P30 filtermat and washed three times for 5 minutes in 75 mM phosphoric acid and once in methanol prior to drying and scintillation counting.

Assay [5] addresses Lck (h) (Homo sapiens, UniProt P06239). As to the kind of experiment: Lck human kinase assay (glass-fiber filter). The conditions noted are these: test concentration of 10^−6M; read-out: C9 score (inhibition of Lck human). The procedure:
as §1, with “below. [table]” for “below.”

Assay [6] addresses Yes (h) (Homo sapiens, UniProt P07947). As to the kind of experiment: Yes human kinase assay (glass-fiber filter). The settings on record: test concentration of 10^−6M; read-out: C11 score (inhibition of Yes human). The procedure: as §3, §4
In a final reaction volume of 25 μl, Yes (h) (5-10 mU) is incubated with 8 mM MOPS pH 7.0, 0.2 mM EDTA, 0.1 mg/ml poly(Glu, Tyr) 4:1, 10 mM MgAcetate and [γ-^33P-ATP] (specific activity approx. […], concentration as required). The reaction is initiated by the addition of the MgATP mix. After incubation for 40 minutes at room temperature, the reaction is stopped by the addition of 5 μl of a 3% phosphoric acid solution. 10 μl of the reaction is then spotted onto a Filtermat A and washed three times for 5 minutes in 75 mM phosphoric acid and once in methanol prior to drying and scintillation counting.

pIC50: −log10 of the molar value.

Fms (h), sequence (P07333 20-972): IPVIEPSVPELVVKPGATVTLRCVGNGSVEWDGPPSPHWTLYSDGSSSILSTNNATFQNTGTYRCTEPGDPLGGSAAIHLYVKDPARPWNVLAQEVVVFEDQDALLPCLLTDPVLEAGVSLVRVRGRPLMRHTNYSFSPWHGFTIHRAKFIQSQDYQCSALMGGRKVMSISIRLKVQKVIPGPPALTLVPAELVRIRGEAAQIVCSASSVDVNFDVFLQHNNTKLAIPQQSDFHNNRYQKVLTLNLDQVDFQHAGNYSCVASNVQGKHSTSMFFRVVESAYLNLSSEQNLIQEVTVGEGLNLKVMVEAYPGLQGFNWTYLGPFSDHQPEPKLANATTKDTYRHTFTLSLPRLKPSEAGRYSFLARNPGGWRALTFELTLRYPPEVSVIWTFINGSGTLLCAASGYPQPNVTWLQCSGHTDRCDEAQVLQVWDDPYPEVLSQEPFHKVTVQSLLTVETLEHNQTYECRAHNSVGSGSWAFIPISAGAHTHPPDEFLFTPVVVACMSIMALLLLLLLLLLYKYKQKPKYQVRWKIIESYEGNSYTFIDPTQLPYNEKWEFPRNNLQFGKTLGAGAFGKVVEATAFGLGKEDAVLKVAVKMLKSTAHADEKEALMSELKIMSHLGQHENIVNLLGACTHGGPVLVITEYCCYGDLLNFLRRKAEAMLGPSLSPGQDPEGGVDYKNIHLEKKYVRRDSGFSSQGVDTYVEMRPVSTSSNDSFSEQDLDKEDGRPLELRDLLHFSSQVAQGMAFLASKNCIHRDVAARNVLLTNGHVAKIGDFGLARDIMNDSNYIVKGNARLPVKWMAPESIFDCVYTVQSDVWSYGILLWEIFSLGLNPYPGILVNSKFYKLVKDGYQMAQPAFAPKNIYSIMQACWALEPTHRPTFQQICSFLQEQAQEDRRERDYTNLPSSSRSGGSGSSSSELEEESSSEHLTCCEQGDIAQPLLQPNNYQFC
Yes (h), sequence (P07947 whole entry): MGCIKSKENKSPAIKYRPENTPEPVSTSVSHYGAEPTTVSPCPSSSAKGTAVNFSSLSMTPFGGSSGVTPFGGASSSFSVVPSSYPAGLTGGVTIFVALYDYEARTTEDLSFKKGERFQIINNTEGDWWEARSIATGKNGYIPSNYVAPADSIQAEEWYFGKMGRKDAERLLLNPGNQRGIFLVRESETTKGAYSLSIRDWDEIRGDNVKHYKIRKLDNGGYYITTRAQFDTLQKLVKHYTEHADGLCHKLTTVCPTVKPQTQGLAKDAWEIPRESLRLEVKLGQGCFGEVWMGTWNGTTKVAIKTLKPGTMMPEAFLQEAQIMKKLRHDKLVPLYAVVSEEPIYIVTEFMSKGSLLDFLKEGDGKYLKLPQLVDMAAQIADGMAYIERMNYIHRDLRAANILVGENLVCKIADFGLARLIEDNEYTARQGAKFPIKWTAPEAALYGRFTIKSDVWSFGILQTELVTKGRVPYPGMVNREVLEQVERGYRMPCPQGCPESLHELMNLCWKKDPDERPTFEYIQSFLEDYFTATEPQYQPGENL
T1 sequence (P00533 712-979 limits assumed): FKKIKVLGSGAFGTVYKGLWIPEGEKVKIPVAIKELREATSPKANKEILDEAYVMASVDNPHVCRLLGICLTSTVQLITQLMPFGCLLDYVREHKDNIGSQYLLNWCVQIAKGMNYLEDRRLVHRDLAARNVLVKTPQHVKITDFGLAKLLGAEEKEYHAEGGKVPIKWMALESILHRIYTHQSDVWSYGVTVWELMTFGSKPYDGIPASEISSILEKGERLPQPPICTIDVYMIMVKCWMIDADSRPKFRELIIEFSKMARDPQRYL
Flt3 (h), sequence (P36888 27-993): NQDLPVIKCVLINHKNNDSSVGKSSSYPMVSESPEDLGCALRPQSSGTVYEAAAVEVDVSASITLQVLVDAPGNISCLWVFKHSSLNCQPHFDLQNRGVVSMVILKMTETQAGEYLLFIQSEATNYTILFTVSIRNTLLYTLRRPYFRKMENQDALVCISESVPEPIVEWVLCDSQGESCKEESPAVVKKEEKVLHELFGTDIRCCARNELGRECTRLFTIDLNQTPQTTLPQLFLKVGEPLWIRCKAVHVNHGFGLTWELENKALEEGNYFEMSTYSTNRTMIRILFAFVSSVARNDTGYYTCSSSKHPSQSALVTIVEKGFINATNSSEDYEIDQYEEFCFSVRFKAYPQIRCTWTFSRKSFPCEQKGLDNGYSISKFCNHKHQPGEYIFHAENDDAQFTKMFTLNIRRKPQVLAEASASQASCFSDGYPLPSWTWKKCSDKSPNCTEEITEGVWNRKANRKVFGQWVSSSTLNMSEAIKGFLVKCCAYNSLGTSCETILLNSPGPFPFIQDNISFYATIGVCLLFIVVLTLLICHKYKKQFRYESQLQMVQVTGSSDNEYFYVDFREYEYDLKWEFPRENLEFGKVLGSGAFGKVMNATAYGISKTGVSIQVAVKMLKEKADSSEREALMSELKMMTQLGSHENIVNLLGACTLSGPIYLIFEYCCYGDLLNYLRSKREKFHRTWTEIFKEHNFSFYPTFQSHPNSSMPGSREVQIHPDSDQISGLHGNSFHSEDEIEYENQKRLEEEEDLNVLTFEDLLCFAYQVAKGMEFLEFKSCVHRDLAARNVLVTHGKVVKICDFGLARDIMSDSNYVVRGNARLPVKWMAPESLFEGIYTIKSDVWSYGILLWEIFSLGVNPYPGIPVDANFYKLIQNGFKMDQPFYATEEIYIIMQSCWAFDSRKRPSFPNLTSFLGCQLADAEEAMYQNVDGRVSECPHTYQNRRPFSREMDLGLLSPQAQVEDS
Lck (h), sequence (P06239 whole entry): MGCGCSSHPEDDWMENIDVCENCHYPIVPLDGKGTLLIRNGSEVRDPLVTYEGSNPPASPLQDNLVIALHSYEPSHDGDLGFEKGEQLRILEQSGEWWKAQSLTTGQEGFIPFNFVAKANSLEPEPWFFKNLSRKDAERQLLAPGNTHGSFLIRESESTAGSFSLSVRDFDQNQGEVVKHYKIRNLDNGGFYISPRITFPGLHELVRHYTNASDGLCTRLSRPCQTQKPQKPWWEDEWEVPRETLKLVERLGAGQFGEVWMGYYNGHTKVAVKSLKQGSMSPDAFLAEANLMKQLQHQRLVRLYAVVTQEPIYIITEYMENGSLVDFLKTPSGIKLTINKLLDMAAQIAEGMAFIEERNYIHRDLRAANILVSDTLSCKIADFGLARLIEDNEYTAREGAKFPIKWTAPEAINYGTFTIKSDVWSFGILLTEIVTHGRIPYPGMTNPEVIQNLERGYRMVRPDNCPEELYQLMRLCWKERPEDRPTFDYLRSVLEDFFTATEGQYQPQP
cSRC (h), sequence (P12931 whole entry): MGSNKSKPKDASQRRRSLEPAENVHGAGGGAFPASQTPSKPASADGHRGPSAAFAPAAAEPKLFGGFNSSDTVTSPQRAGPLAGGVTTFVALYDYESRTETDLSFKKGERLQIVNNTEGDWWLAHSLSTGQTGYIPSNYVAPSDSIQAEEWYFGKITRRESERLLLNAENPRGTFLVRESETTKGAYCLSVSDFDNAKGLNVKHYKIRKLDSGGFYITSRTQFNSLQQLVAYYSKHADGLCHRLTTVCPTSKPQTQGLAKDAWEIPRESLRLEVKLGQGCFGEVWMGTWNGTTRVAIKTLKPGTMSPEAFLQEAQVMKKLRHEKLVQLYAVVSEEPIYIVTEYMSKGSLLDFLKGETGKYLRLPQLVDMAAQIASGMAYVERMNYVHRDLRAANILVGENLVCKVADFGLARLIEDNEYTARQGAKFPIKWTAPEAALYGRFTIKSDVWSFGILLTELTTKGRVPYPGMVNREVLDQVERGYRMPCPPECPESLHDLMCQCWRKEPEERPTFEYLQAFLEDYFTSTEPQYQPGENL

Take `COc1ccc2cc1OCCNC(=O)C1CCCCN1Cc1cc(ccc1Cl)Nc1cc(ncn1)N2` (racemic) [Compound 145]: in assay [1], the pIC50 was 5.00 to 6.00.

With `O=C1COc2cccc(c2)Nc2nccc(n2)Nc2cccc(c2)OCCCN1` [Compound 29, 14,21-dioxa-2,4,8,18,28-pentaazatetracyclo[20.3.1.1~3,7~.1~9,13~]octacosa-1(26),3,5,7(28),9,11,13(27),22,24-nonaen-19-one], the inhibition at 1 µM in assay [2] is 10 to 30%; in assay [3], more than 80%; in assay [4] it was 10 to 30%; in assay [5] it was 30 to 60%; in assay [6], 60 to 80%.

As to `O=C1CCCCCCNC(=O)c2cccc(c2)Nc2cc(ncn2)Nc2cccc(c2)CN1` [Compound 57, 2,4,6,8,15,23-hexaazatetracyclo[23.3.1.1~3,7~.1~9,13~]hentriaconta-1(29),3,5,7(31),9,11,13(30),25,27-nonaene-14,22-dione], the inhibition at 1 µM in assay [3] is 30 to 60%.

Regarding `CC(C)C1NC(=O)c2cccc(c2)Nc2cc(ncn2)Nc2cccc(c2)CNC(=O)CNC1=O` (stereo not drawn) [Compound 60], the inhibition at 1 µM in assay [4] and in assay [6] was 10 to 30% each time.

As to `O=C1CNC(=O)CNC(=O)c2cccc(c2)Nc2cc(ncn2)Nc2cccc(c2)CN1` [Compound 61], the inhibition at 1 µM was 60 to 80% in assay [4] and 10 to 30% in assay [6].

`COc1ccc2cc1OCCNC(=O)CCCN(C)Cc1cc(ccc1Cl)Nc1cc(ncn1)N2` [Compound 111]: the pIC50 in assay [1] was 5.00 to 6.00.

On to `CCN1CCC(=O)NCCOc2cc(ccc2OC)Nc2cc(ncn2)Nc2ccc(Cl)c(c2)C1` [Compound 113], for which the pIC50 in assay [1] was 5.00 to 6.00.

As for `COc1ccc2cc1OCCNC(=O)CCN1CCC(CC1)N(C)Cc1cc(ccc1Cl)Nc1cc(ncn1)N2` [Compound 127], in assay [1], the pIC50 was 5.00 to 6.00.

As to `CCN1CCNC(=O)C(CC2CCCCC2)NC(=O)COc2ccc(cc2)Nc2cc(ncn2)Nc2cccc(c2)C1` (stereo not drawn) [Compound 135], the pIC50 in assay [1] was 5.00 to 6.00.

Consider `CCN1CCNC(=O)C2CN(CCO2)C(=O)COc2ccc(cc2)Nc2cc(ncn2)Nc2cccc(c2)C1` (stereo not drawn) [Compound 136], for which the pIC50 in assay [1] is more than 6.00.

Take `COc1ccc2cc1OCCNC(=O)C1CCCN(C1)C(=O)COc1ccc(cc1)Nc1cc(ncn1)N2` (stereo not drawn) [Compound 140]: the pIC50 in assay [1] was 5.00 to 6.00.

As to `COc1ccc2cc1OCCNC(=O)CC(CC(C)C)NC(=O)COc1ccc(cc1)Nc1cc(ncn1)N2` (stereo not drawn) [Compound 141], the pIC50 in assay [1] was 5.00 to 6.00.

Regarding `COc1ccc2cc1OCCNC(=O)C(CCSC)NC(=O)COc1cccc(c1)Nc1cc(ncn1)N2` (stereo not drawn) [Compound 173], the pIC50 in assay [1] was 5.00 to 6.00.

For the compound `COCC1NC(=O)COc2cccc(c2)Nc2cc(ncn2)Nc2cccc(c2)OCCCCCNC1=O` (stereo not drawn) [Compound 179], the pIC50 in assay [1] is 5.00 to 6.00.

Regarding `O=C1COc2cccc(c2)Nc2cc(ncn2)Nc2cccc(c2)OCCCCCNC(=O)C(Cc2cccnc2)N1` (stereo not drawn) [Compound 180], the pIC50 in assay [1] is 5.00 to 6.00.

In the case of `COc1ccc2cc1OCCNC(=O)C1CN(CCC1O)Cc1cc(ccc1Cl)Nc1cc(ncn1)N2` (stereo not drawn) [Compound 182], the pIC50 in assay [1] is 5.00 to 6.00.

For `CCN1CC(=O)NCCOc2cc(ccc2OC)Nc2cc(ncn2)Nc2ccc(Cl)c(c2)C1` [Compound 183], in assay [1], the pIC50 was 5.00 to 6.00.

For `CN1Cc2cccc(c2)Nc2cc(ncn2)Nc2ccccc2OCCCCCNC(=O)CCN2CCC1CC2` [Compound 186], the pIC50 in assay [1] is 5.00 to 6.00.

For the compound `CCN1CC(=O)NCCCCCOc2ccccc2Nc2cc(ncn2)Nc2cccc(c2)C1` [Compound 190], the pIC50 in assay [1] is 5.00 to 6.00.

Regarding `O=C1CCN(CCN2CCOCC2)Cc2cccc(c2)Nc2cc(ncn2)Nc2cccc(c2)OCCCCN1` [Compound 195], the pIC50 in assay [1] was 5.00 to 6.00.

Take `CN1Cc2cccc(c2)Nc2cc(ncn2)Nc2cccc(c2)OCCCCNC(=O)CCN2CCC1CC2` [Compound 196]: the pIC50 in assay [1] was 5.00 to 6.00.

As usually defined, the inhibition is the relative decrease from the control value, in per cent.
